Legend:
BALB/c mice = experiment: In vivo luciferase quantitation, Example 4 (cationic ionizable lipid pKa>7 LNPs); design: species or system mouse; details: LIP021 LNPs with LIP001 or without lipid <7 pKa
Method: (§1) The ratio of the sum of ionizable amines and cationic quaternary ammonium ions to mRNA phosphates in the LNP was 6. Lipids were dissolved in ethanol and mRNA was dissolved in 50 mM Citrate buffer pH 5.0. The organic and aqueous phases were combined at a flow rate of 12 mL/min on a Precision Nanosystems NanoAssemblr at a ratio of 3:1 (aqueous: organic). The product was immediately diluted to 16.5% ethanol using MilliQ water. The diluted product was dialyzed against a volume of 50 mM Tris pH 7.5 45 mM NaCl that was 300-fold in excess. The dialyzed product was concentrated using Amicon Ultra 100 kDa centrifuge tubes and sterile filtered. mRNA concentration and encapsulation was assessed by the Invitrogen Ribogreen assay.
(§2) LNPs were administered to BALB/c mice via the tail vein at a dose of 0.5 mg/kg. After eighteen hours bioluminescence was measured using an IVIS Spectrum imager. Mice were treated with 150 mg/kg luciferin substrate administered via intraperitoneal injection. Immediately following the in vivo image mice were euthanized and the lung, liver and spleen were harvested for ex vivo imaging.

B6 albino mice = experiment: In vivo luciferase quantitation, Example 1 (IVIS, in vivo and ex vivo lung, liver, spleen); design: species or system mouse; details: lipid added at 50 mol % to liver targeting LNPs
Method: Luciferase mRNA was formulated in LNPs containing a cationic ionizable lipid LIP001, cholesterol, DSPC, and PEG-DMG, in the presence or absence of the cationic lipid or cationic ionizable lipid pKa>7 according to the following molar ratios:
as §1, with “phosphates” for “phosphates in the LNP”, “200-fold” for “300-fold”
as §2, with “B6 albino” for “BALB/c”, “0.3” for “0.5”, “six” for “eighteen”

SMILES	lung targeting, ex vivo bioluminescence (FIG. 10-11) (BALB/c mice)	shift of distribution of luciferase expression to the lungs (B6 albino mice) [fold]
CCCCC/C=C\C/C=C\CCCCCCCC(=O)OCC(COC(=O)CCC(OCCCCCCCC)OCCCCCCCC)COC(=O)NCCCN1CCC(O)CC1 (centres unmarked) [LIP021, 3-((4,4-bis(octyloxy)butanoyl)oxy)-2-((((3-(4-hydroxy-piperidin-1-yl)propyl)carbamoyl)oxy)methyl) propyl (9Z,12Z)-octadeca-9,12-dienoate]	does not exhibit a lung-targeting effect	–
CC(C)CCC[C@@H](C)[C@H]1CC[C@H]2[C@@H]3CC=C4C[C@@H](OC(=O)NCCN(C)C)CC[C@]4(C)[C@H]3CC[C@]12C.Cl [DC Cholesterol, DC- Cholesterol]	–	~40
